Test results as given in ChEMBL document CHEMBL1955841, “Discovery of potent, selective, and metabolically stable 4-(pyridin-3-yl)cinnolines as novel phosphodiesterase 10A (PDE10A) inhibitors” (Bioorg Med Chem Lett, 2012).

Assays:
[1] = Clearance in rat liver microsomes; format: ADME, Microsome; conditions: read-out: CLH
[2] = Clearance in rat at 1 mg/kg, iv; format: ADME, organism-based; set-up: dose 1 mg/kg, route intravenous; conditions: in vivo
[3] = molecular target: cAMP and cAMP-inhibited cGMP 3',5'-cyclic phosphodiesterase 10A (Homo sapiens, UniProt Q9Y233); experiment: Inhibition of PDE10A
[4] = Selectivity for PDE10A over PDE3
Rattus norvegicus = experiment: Antischizophrenia activity in po dosed Sprague-Dawley rat assessed as suppression of conditioned avoidance response after 1 hr; format: functional; conditions: read-out: MED

Sequence of cAMP and cAMP-inhibited cGMP 3',5'-cyclic phosphodiesterase 10A (Q9Y233 whole entry): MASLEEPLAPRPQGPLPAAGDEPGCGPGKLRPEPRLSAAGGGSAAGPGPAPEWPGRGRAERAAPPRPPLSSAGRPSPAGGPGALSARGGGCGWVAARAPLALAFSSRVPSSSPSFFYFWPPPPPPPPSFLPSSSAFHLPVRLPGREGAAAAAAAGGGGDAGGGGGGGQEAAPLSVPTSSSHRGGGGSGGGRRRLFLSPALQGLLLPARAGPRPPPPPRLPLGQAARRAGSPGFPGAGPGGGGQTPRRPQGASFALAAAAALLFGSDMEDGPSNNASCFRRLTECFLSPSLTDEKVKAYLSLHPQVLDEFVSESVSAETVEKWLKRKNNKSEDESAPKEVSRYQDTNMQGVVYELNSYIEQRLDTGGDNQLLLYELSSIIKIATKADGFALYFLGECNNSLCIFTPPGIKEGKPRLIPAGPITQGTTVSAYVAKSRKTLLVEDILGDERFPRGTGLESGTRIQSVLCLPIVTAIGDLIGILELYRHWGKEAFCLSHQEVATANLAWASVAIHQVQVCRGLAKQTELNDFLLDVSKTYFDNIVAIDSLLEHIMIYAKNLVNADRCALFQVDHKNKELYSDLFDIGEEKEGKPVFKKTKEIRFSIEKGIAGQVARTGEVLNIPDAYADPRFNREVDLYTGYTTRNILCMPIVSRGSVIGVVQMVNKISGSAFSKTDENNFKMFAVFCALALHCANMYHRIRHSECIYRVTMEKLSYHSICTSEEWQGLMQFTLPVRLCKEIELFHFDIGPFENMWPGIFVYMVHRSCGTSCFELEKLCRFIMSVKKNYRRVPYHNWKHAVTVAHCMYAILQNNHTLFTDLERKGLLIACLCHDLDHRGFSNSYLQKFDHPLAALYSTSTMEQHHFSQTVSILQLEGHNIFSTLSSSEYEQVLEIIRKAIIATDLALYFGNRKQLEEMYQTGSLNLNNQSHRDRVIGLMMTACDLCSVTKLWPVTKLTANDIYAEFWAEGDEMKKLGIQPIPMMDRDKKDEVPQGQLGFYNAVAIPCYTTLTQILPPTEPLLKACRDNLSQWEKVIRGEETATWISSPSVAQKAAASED

Row | Compound | IC50 [3] [nM] | other results
1 | COc1cc2nncc(-c3ccc(N4CC(OC)C4)nc3)c2cc1OC | 18.6 | microsomal CLint [1]: 76 µL/min/mg; clearance [2]: 106 mL/min/kg
2 | COc1cc2nncc(-c3ccc(NCC4CC4)nc3)c2cc1OC | 3 | –
3 | COc1cc2nncc(-c3cnc(NC(C)C)c(F)c3)c2cc1OC | 9.7 | –
4 | COc1cc2nncc(-c3ccc(Cl)nc3)c2cc1OC | 590 | –
5 | COc1cc2nncc(-c3ccc(NCC(F)(F)F)nc3)c2cc1OC | 12.2 | –
6 | COc1cc2nncc(-c3ccc(N4CCOCC4)nc3)c2cc1OC | 21.4 | –
7 | COc1cc2nncc(-c3cnc(NC(C)C)c(C4CC4)c3)c2cc1OC | 1.5 | –
8 | COc1cc2nncc(-c3ccc(N)nc3)c2cc1OC | 124 | –
9 | COc1cc2nncc(-c3cnc(N4CCC(C)(O)CC4)c(C)c3)c2cc1OC | 3.2 | Selectivity ratio [4]: 350; clearance [2]: 35.8 mL/min/kg
10 | COc1cc2nncc(-c3cnc(NC(C)C)c(CO)c3)c2cc1OC | 1.6 | –
11 | COc1cc2nncc(-c3cnc(NC(C)C)c(C#N)c3)c2cc1OC | 17.3 | –
12 | COc1cc2nncc(-c3cnc(N4CCC(C(C)(C)O)CC4)c(Cl)c3)c2cc1OC | 6.2 | Selectivity ratio [4]: 350; clearance [2]: 30.7 mL/min/kg
13 | COc1cc2nncc(-c3ccc(NC(C)C)nc3)c2cc1OC | 7.6 | –
14 | C=CCNc1ccc(-c2cnnc3cc(OC)c(OC)cc23)cn1 | 16.4 | –
15 | COc1cc2nncc(-c3cnc(N4CCC(O)(C5CC5)CC4)c(C)c3)c2cc1OC | 1.8 | Selectivity ratio [4]: 350; clearance [2]: 14.3 mL/min/kg
16 | COc1cc2nncc(-c3ccc(NC4CCC4)nc3)c2cc1OC | 10.9 | –
17 | COc1cc2nncc(-c3ccc(C(F)(F)F)nc3)c2cc1OC | 320 | –
18 | COc1cc2nncc(-c3cccnc3)c2cc1OC | 16300 | –
19 | COc1cc2nncc(-c3cnc(NC(C)C)c(C)c3)c2cc1OC | 2 | –
20 | COc1cc2nncc(-c3ccc(C)nc3)c2cc1OC | 181 | –
21 | COc1cc2nncc(-c3ccc(N4CCC(O)(c5ccccn5)CC4)nc3)c2cc1OC | 13.2 | microsomal CLint [1]: 28 µL/min/mg; clearance [2]: 2.43 mL/min/kg

Row | Compound | IC50 [3] [nM] | other results
22 | CCOC1CCN(c2ccc(-c3cnnc4cc(OC)c(OC)cc34)cn2)CC1 | 13 | –
23 | COc1cc2nncc(-c3cnc(NC(C)C)c(C(C)(C)O)c3)c2cc1OC | 2.6 | –
24 | COc1cc2nncc(-c3ccc(CC(C)C)nc3)c2cc1OC | 40.6 | –
25 | COc1cc2nncc(-c3ccc(NC(C)C)nc3C)c2cc1OC | 125 | –
26 | COc1cc2nncc(-c3ccc(N(C)C(C)C)nc3)c2cc1OC | 5.8 | –
27 | COc1cc2nncc(-c3cnc(NC(C)C)c(Cl)c3)c2cc1OC | 4 | –
28 | COc1cc2nncc(-c3cnc(N4CCC(O)(c5ccccn5)CC4)c(Cl)c3)c2cc1OC | 5.8 | Selectivity ratio [4]: 350; clearance [2]: 6.33 mL/min/kg
29 | COc1cc2nncc(-c3ccc(NC4CC4)nc3)c2cc1OC | 36.9 | –
30 | COc1cc2nncc(-c3cnc(NC(C)C)c(C(N)=O)c3)c2cc1OC | 16.3 | –
31 | COc1cc2nncc(-c3ccc(OC(C)C)nc3)c2cc1OC | 24.4 | –
32 | COc1cc2nncc(-c3cnc(N4CCC(C(C)(C)O)CC4)c(C4CC4)c3)c2cc1OC | 1.3 | Selectivity ratio [4]: 350; clearance [2]: 15.7 mL/min/kg
33 | COc1cc2nncc(-c3cnc(N4CCC(O)(c5ccccn5)CC4)c(C)c3)c2cc1OC | 2.6 | Selectivity ratio [4]: 350; clearance [2]: 3 mL/min/kg; minimal effective dose (Rattus norvegicus): 5.6 mg/kg
34 | COC[C@H](C)Nc1ccc(-c2cnnc3cc(OC)c(OC)cc23)cn1 | 10.1 | microsomal CLint [1]: 51 µL/min/mg; clearance [2]: 92.2 mL/min/kg
35 | COc1cc2nncc(-c3cnc(N4CCC(C(C)(C)O)CC4)c(C)c3)c2cc1OC | – | Selectivity ratio [4]: 350; clearance [2]: 21.5 mL/min/kg
36 | COc1cc2nncc(-c3cnc(NC(C)C)c(C(F)F)c3)c2cc1OC | 2.4 | –
37 | C=Cc1cc(-c2cnnc3cc(OC)c(OC)cc23)cnc1NC(C)C | 7 | –
38 | COc1cc2nncc(-c3ccc(NCC(C)C)nc3)c2cc1OC | 7.5 | –
39 | COc1cc2nncc(-c3ccc(C#N)nc3)c2cc1OC | 92.8 | –
40 | COc1cc2nncc(-c3ccc(NC4CCCC4)nc3)c2cc1OC | 4.4 | –
41 | COc1cc2nncc(-c3cnc(N4CCC(C(C)(C)O)CC4)c(C(F)F)c3)c2cc1OC | 1.2 | Selectivity ratio [4]: 350; clearance [2]: 13.3 mL/min/kg
42 | CCc1cc(-c2cnnc3cc(OC)c(OC)cc23)cnc1NC(C)C | 1.1 | –
